# Source: patent US9499537B2, “Antiviral pyrrolopyridine derivatives and method for preparing the same” (KOREA RESEARCH INSTITUTE OF CHEMICAL TECHNOLOGY, priority 2011, dated 2016)
# Tested on: MT-4 cells
# Test: Cytotoxicity test in MT-4 cells (MTT method)
# Format: cell-based
# Conditions: human
# Description: In order to look into the HIV-1 inhibition effects of the compound of the present invention, an in vitro test for HIV-1 inhibition effects was carried out as follows according to a known method (H. Tanaka et al., J. Med. Chem., 1991, 34, 349). MT-4 cells were used as host cells, and the degree of the compound of the present invention inhibiting the cytotoxicity of the virus-infected MT-4 cells was investigated.
# First, MT-4 cells were diffused at a concentration of 1×10^4 cell/well to a culture medium, and HIV-1 was inoculated so that the concentration was 500 TCI50 (concentration at which 50% of the cell is infected)/well. Immediately after the inoculation, the cell dispersion was transferred in 100 μL each to a flat microtiter plate in which the sample of the compound of the present invention was placed. The sample was incubated for approximately for 4 to 5 days at […], and the virus suppression effect was determined using an MTT method. In addition, the cytotoxicity was also determined by measuring the survivability of the experimentally virus-infected cells using an MTT method. As a comparative compound, azidothymidine (AZT) and raltegravir were used.
row,Compound,CC60 (μM) ** : concentration at 50% cell damage with respect to MT-4 cells
1,"Cc1nc2c(c(C)c(C)n2CCCC#N)c(-c2ccc(Cl)cc2)c1[C@H](OC(C)(C)C)C(=O)O [Example 60, (S)-2-(Tert-butoxy)-2-(4-(4-chlorophenyl)-1-(3-cyanopropyl)-2,3,6-trimethyl-1H-pyrrolo[2,3-b]pyridin-5-yl)acetic acid]",18.23 µM
2,"Cc1nc2c(c(C)c(C)n2Cc2cccc(C#N)c2)c(-c2ccc(Cl)cc2)c1[C@H](OC(C)(C)C)C(=O)O [Example 61, (S)-2-(Tert-butoxy)-2-(4-(4-chlorophenyl)-1-(3-cyanobenzyl)-2,3,6-trimethyl-1H-pyrrolo[2,3-b]pyridin-5-yl)acetic acid]",9.43 µM
3,"Cc1nc2c(c(C)c(C)n2Cc2ccoc2)c(-c2ccc(Cl)cc2)c1[C@H](OC(C)(C)C)C(=O)O [Example 62, (S)-2-(Tert-butoxy)-2-(4-(4-chlorophenyl)-1-(furan-3-ylmethyl)-2,3,6-trimethyl-1H-pyrrolo[2,3-b]pyridin-5-yl)acetic acid]",15.34 µM
4,"Cc1nc2c(c(C)c(C)n2Cc2cncs2)c(-c2ccc(Cl)cc2)c1[C@H](OC(C)(C)C)C(=O)O [Example 63, (S)-2-(Tert-butoxy)-2-(4-(4-chlorophenyl)-2,3,6-trimethyl-1-(thiazol-5-ylmethyl)-1H-pyrrolo[2,3-b]pyridin-5-yl)acetic acid]",38.3 µM
5,"Cc1nc2c(c(C)c(C)n2Cc2nccs2)c(-c2ccc(Cl)cc2)c1[C@H](OC(C)(C)C)C(=O)O [Example 64, (S)-2-(Tert-butoxy)-2-(4-(4-chlorophenyl)-2,3,6-trimethyl-1-(thiazol-2-ylmethyl)-1H-pyrrolo[2,3-b]pyridin-5-yl)acetic acid]",48.57 µM
6,"Cc1nc2c(c(C)c(C)n2CCN(C)C)c(-c2ccc(Cl)cc2)c1[C@H](OC(C)(C)C)C(=O)O [Example 65, (S)-2-(Tert-butoxy)-2-(4-(4-chlorophenyl)-1-(2-dimethylaminoethyl)-2,3,6-trimethyl-1H-pyrrolo[2,3-b]pyridin-5-yl)acetic acid]",70.86 µM
7,"Cc1nc2c(c(C)c(C)n2Cc2ccnc(F)c2)c(-c2ccc(Cl)cc2)c1[C@H](OC(C)(C)C)C(=O)O [Example 66, (S)-2-(Tert-butoxy)-2-(4-(4-chlorophenyl)-1-((2-fluoropyridin-4-yl)methyl)-2,3,6-trimethyl-1H-pyrrolo[2,3-b]pyridin-5-yl)acetic acid]",14.55 µM
8,"Cc1nc2c(c(C)c(C)n2Cc2ccc(F)nc2)c(-c2ccc(Cl)cc2)c1[C@H](OC(C)(C)C)C(=O)O [Example 67, (S)-2-(Tert-butoxy)-2-(4-(4-chlorophenyl)-1-((6-fluoropyridin-3-yl)methyl)-2,3,6-trimethyl-1H-pyrrolo[2,3-b]pyridin-5-yl)acetic acid]",13.65 µM
9,"Cc1nc2c(c(C)c(C)n2Cc2cccnc2F)c(-c2ccc(Cl)cc2)c1[C@H](OC(C)(C)C)C(=O)O [Example 68, (S)-2-(Tert-butoxy)-2-(4-(4-chlorophenyl)-1-((2-fluoropyridin-3-yl)methyl)-2,3,6-trimethyl-1H-pyrrolo[2,3-b]pyridin-5-yl)acetic acid]",17.14 µM
10,"Cc1nc2c(c(C)c(C)n2CC2CC2(F)F)c(-c2ccc(Cl)cc2)c1[C@H](OC(C)(C)C)C(=O)O (stereo partly drawn) [Example 69, (S)-2-(Tert-butoxy)-2-(4-(4-chlorophenyl)-1-((2,2-difluorocyclopropyl)methyl)-2,3,6-trimethyl-1H-pyrrolo[2,3-b]pyridin-5-yl)acetic acid]",17.55 µM
11,"Cc1nc2c(c(C)c(C)n2CCN2CCCC2=O)c(-c2ccc(Cl)cc2)c1[C@H](OC(C)(C)C)C(=O)O [Example 70, (S)-2-(Tert-butoxy)-2-(4-(4-chlorophenyl)-2,3,6-trimethyl-1-(2-(2-oxopyrrolidin-1-yl)ethyl)-1H-pyrrolo[2,3-b]pyridin-5-yl)acetic acid]",49.2 µM
